Data: patent US7087608B2, “Use of PDGF receptor tyrosine kinase inhibitors for the treatment of diabetic nephropathy” (priority 2000, dated 2006)

System: male Wistar rats with anti-Thy-1 nephritis
Assay: Mesangial proliferative glomerulonephritis (anti-Thy-1 nephritis) induced with OX-7 antibody
Format: in vivo, rat
Excerpt: Mesangial proliferative Glomerulonephritis induced in Male Wistar Rats with monoclonal OX-7, anti-rat Thy-1.1 Antibody
Monoclonal OX-7, anti-rat Thy-1.1 antibody is used for the induction of mesangial proliferative glomerulonephritis (D. W. Mason and A. F. Williams, Biochem. J. 187(1), 1980, 1–20), macrophages are detected using ED1, anti-rat CD68 (C. D. Dijkstra et al., Immunology 54(3), 1985, 589–99) myofibroblasts are identified by labelling with 1A4, anti-human a smooth muscle actin (Sigma Immunochemicals, St. Louis, Mo.) and M744, anti-BrdU (Dako, Glostrup, Denmark) is used to identify proliferating cells. A polyclonal goat anti-bovine/anti-human type IV collagen antibody (Southern Biotechnology, Birmingham, Ala.) is used to examine extracellular matrix.
Anti-Thy-1 nephritis is induced in two groups of 8 male Wistar rats (150–170 g) by i.v. injection of 5 mg/kg OX-7 IgG (D. J. Nikolic-Paterson et al., J. Am. Soc. Nephrol. 7(7), 1996, 1006–14). […] A group of 8 normal rats are also injected with BrdU 3 hours before sacrifice.
Twenty-four hour urine collections and blood samples are taken on days-3 (prior to test) and day 6. Urinary protein concentration is measured by the benzethonium chloride method (Iwata, J. et al., Clin. Chem. 25(7), 1979, 1317–9). Serum and urine creatinine levels are measured using the Jaffé rate reaction (Larsen, K., Clin. Chim. Acta 41, 1972, 209–17).
Tissues are fixed in 4% neutral buffered-formalin and embedded in paraffin. Kidney sections (4 μm) are stained with periodic-acid Schiff's reagent (PAS). Quantitation of nuclei is performed by examining 50 hilar glomeruli per animal.
Immunostaining is performed as described by Rumble et al., J. Clin. Invest. 99, 1997, 1016–1027. Double immunohistochemical staining is performed in formalin fixed tissue sections using a microwave-based technique to prevent antibody cross-reactivity (G. H. Tesch, et al, Am. J. Pathol. 151(1), 1997, 141–50).
Sections stained with either BrdU or ED1 antibody are scored for ED1+ or BrdU+. Counting is undertaken using a graticule to measure glomerular tuft area and confined to the glomerular tuft thereby omitting cells within the capillary lumen. Fifty glomeruli are scored for each animal and labelled cells expressed as the mean±SD per mm^2. In addition, the number of cells in double-labelled sections are also scored as ED1+BrdU+, ED1+BrdU− and ED1−BrdU+.
The magnitude of immunostaining for type IV collagen is quantified using computer assisted image analysis as previously described (H. A. Lehr et al., J. Histochem. Cytochem. 45(11), 1997, 1559–65).

[1] = 50 mg/kg daily i.p., day 6, 50 hilar glomeruli per animal, p<0.05

Cc1ccc(NC(=O)c2ccc(CN3CCN(C)CC3)cc2)cc1Nc1nccc(-c2cccnc2)n1 [CGP 57148B, N-{5-[4-(4-methyl-piperazino-methyl)-benzoylamido]-2-methylphenyl}-4-(3-pyridyl)-2-pyrimidine-amine]
Proteinuria (50 mg/kg daily i.p. from day 1 after OX-7 IgG, day 6, 24-hour urine): 16.4±7.0 mg/24 hours
Mesangial cell (BrdU+ED1−) proliferation per glomerular cross section (FIG. 2) (50 mg/kg daily i.p., day 6, 50 hilar glomeruli per animal, p<0.001): significantly reduced
Glomerular hypercellularity, nuclei per glomerular cross section (FIG. 1) [1]: significantly reduced
Number of activated mesangial cells (a-smooth muscle actin positive) (FIG. 3) [1]: significantly reduced
Glomerular matrix accumulation of immunostainable type IV collagen (FIG. 4) (50 mg/kg daily i.p., day 6, image analysis, p<0.05 versus untreated rats): significantly reduced
Mesangial hypercellularity and increased mesangial matrix in PAS-stained kidney sections (50 mg/kg daily i.p., killed on day 6): not observed
